Assay results: ChEMBL document CHEMBL3832080, “DailyMed|setid=f3c5895f-f54b-43d4-9b38-7bfbdf8335b7 | CEFOTAXIME - cefotaxime injection, powder, for solution|WOCKHARDT USA LLC”

How the values were obtained:
[1] = (§1) Pharmacokinetics parameters for Cefotaxine evaluated after single IV or intramuscular (IM) administration of Cefotaxine to normal volunteers.; format: ADME, organism-based; design: dose 1 g, dose 500 mg, dose 2 g, route iv, route im; settings: human, in vivo, regimen Single dose
Homo sapiens = assay: as §1; format: ADME, organism-based; design: dose 1 g, dose 500 mg, dose 2 g, route iv, route im; settings: in vivo, im, dose 500 mg, dosed compound id 59, dosed compound name CEFOTAXIME, regimen Single dose, tissue Serum
[2] = dose 1 g, dosed compound id 59, dosed compound name CEFOTAXIME, route im, tissue Serum

half-life ([1]; dose 50 mg/kg, dosed compound id 59, dosed compound name CEFOTAXIME, route iv, study dosing duration 10 to 15 minutes, tissue Urine): 4.6 h
Tmax [1, 2]: 0.5 h
half-life [1, 2]: 1 h
dose excreted ([1]; dosed compound id 590, dosed compound name 14C-CEFOTAXIME, route iv, tissue Urine, read-out: Excretion): 20 to 36%
Tmax (Homo sapiens): 0.5 h
t1/2 (Homo sapiens): 1 h
Compound: CO/N=C(\C(=O)N[C@@H]1C(=O)N2C(C(=O)[O-])=C(COC(C)=O)CS[C@H]12)c1csc(N)n1.[Na+] [CEFOTAXIME SODIUM]
